Measured values from patent US4767749A, “Ester of (triarylphosphoranylidene)carbamic acid having diuretic and ability to lower plasma renin properties” (American Cyanamid Company, priority 1986, dated 1988).

Columns and labels:
plasma renin activity = assay: Inhibition of evoked (drug-induced) elevation of plasma renin activity in conscious rats; type: in vivo, male Wistar rats; conditions: Rattus norvegicus, 30 min before provocative treatment; for inhibition in vivo at 25 mg/kg: 25 mg/kg oral
Description: Inhibition of evoked increase of plasma renin activity was determined by the following test.
Compounds were tested for their ability to prevent drug-induced elevation of plasma renin activity (PRA) in concious, male Wistar rats (180-200 g, Charles River Lab.). PRA elevation was induced by a combined oral provacative treatment (C) of hydrochlorothiazide (10 mg/kg) and 1-(3-benzoyl-3-mercapto-2-methylpropionyl)-L-proline, acetate (U.S. Pat. No. 4,226,775) (one mg/kg), prepared by compounding in a mortar and pestle with preboiled 3% starch suspension. This treatment provided the daily maximum PRA. The daily minimum PRA was obtained from rats given oral starch suspension (S) alone. The magnitude of drug effect on PRA elevation was ascertained from rats pretreated orally with test agent (D), at the indicated doses, 30 minutes prior to administration of provacative treatment (C). The test agent was also compounded in preboiled 3% starch suspension. The dose volumes for both pretreatment and provocative treatment were 2 ml/kg. One hour after provocative treatment the rats were sacrificed by decapitation and the first 3 seconds of blood collected in two chilled Vacutainer® tubes (Becton-Dickinson, Rutherford, N.J.) containing 40 μl of 150 mg/ml tripotassium EDTA. The plasma fractions, obtained by centrifugation for 20 minutes at 4° C. and 3000 G, were incubated (one of each pair at 37° C., the other at 4° C.) at pH 6.8 in 50 mM phosphate buffer to produce angiotensin I. The incubates contained peptidase inhibitors to prevent angiotensin I degradation and the incubation buffer contained one mg/ml lysozyme (Sigma Grade III) used as an antiabsorbant. The incubates were diluted 20 fold in cold 100 mM Tris buffer (pH adjusted to 7.4 with glacial acetic acid) also containing one mg/ml lysozyme, and then frozen. Diluted incubates were assayed within 3 days for angiotensin I content by radioimmunoassay according to a modification of the method of Haber, et al., J. Clin. Endocrin., 29, 1349-1355 (1969).
PRA is calculated as follows:
PRA(ng AI/hour/ml plasma)=PRA 37° C.-PRA 4° C.
Percent inhibition of PRA elevation is calculated as follows: [formula]

[1] = system: spontaneously hypertensive rats (SHR); assay: Diuretic activity in spontaneously hypertensive rats; type: in vivo, male spontaneously hypertensive rats (Okamoto strain); conditions: 100 mg/kg by gavage with 0.9% sodium chloride loading 25 ml/kg; 0-5 hour urine
Description: The diuretic activity of the compounds of this invention was also determined according to the method of Chan, P. S. and Poorvin, D., Sequential method for combined screening antihypertensive and diuretic agents in the same spontaneously hypertensive rat. Clinical and Experimental Hypertension, 1(6), 817-830 (1979).
Male spontaneously hypertensive rats (SHR) of Okamoto strain, 16 weeks old, Taconic Farms Inc. were used in the test. These rats were kept on Purina laboratory chow and tap water ad libitum for 8 weeks before use. One male adult rat (about 300 g) was dosed by gavage with a test compound at 100 mg/kg together with 0.9% sodium chloride loading at 25 ml/kg at zero hour. The test compound was suspended in 3% preboiled starch at 50 mg/ml. The rat was put in a metabolism cage. The 0-5 hour urine was collected and urinary sodium and potassium were determined using a Beckman Astra 4. The effects of representative compounds of the invention according to this test appear in Table III expressed in milliequivalents (mEQ) of urinary sodium and potassium excreted.

Compound | inhibition in vivo at 25 mg/kg (plasma renin activity) [%] | Potassium (urinary excretion) [1] [mEQ/5 Hours] | Sodium (urinary excretion) [1] [mEQ/5 Hours] | Volume (urine) [1] [mL] | inhibition in vivo at 50 mg/kg (plasma renin activity; 50 mg/kg oral) [%] | inhibition in vivo at 100 mg/kg (plasma renin activity; 100 mg/kg oral) [%]
CCCOC(=O)N=P(c1ccccc1)(c1ccccc1)c1ccccc1 [(Triphenylphosphoaranylidene)carbamic acid, n-propyl ester] | 90 | 0.48 | 1.37 | 12.5 | – | –
O=C(N=P(c1ccccc1)(c1ccccc1)c1ccccc1)OC1CCOC1 (centres unmarked) [(Triphenylphosphoranylidene)carbamic acid, tetrahydro-3-furanyl ester] | 69 | 0.70 | 1.10 | 14.8 | 49 | 85
CCOC(=O)N=P(c1ccccc1)(c1ccccc1)c1ccccc1C(F)(F)F [[diphenyl[2-(trifluoromethyl)phenyl]phosphoranylidene]carbamic acid, ethyl ester] | 75 | 0.91 | 2.12 | 19.3 | – | –
CCOC(=O)N=P(c1ccccc1)(c1ccccc1)c1ccccc1C [[(2-Methylphenyl)diphenylphosphoranylidene]carbamic acid, ethyl ester] | 92 | 0.78 | 2.68 | 25.5 | – | –
O=C(N=P(c1ccccc1)(c1ccccc1)c1ccccc1)OCc1cccnc1 [(triphenylphosphoranylidene)carbamic acid, 3-pyridinylmethyl ester] | 40 | 1.00 | 1.60 | 14.5 | – | –
Cc1ccccc1P(=NC(=O)OCC1CC1)(c1ccccc1)c1ccccc1 [[(2-methylphenyl)diphenylphosphoranylidene]carbamic acid, cyclopropylmethyl ester] | 72 | 0.73 | 1.33 | 12.0 | – | –
COC(=O)N=P(c1ccccc1)(c1ccccc1)c1c(C)cccc1C [[(2,6-dimethylphenyl)diphenylphosphoranylidene]carbamic acid, methyl ester] | 68 | 0.84 | 1.33 | 12.8 | – | –
COC(=O)N=P(c1ccccc1)(c1ccccc1)c1ccccc1 [(Triphenylphosphoranylidene)carbamic acid, methyl ester] | 72 | 0.55 | 2.53 | 23.3 | – | –
COC(=O)N=P(c1ccccc1)(c1ccccc1)c1ccccc1C(F)(F)F [[diphenyl[2-(trifluoromethyl)phenyl]phosphoranylidene]carbamic acid, methyl ester] | 49 | 1.02 | 1.71 | 18.5 | – | –
COC(=O)N=P(c1ccccc1)(c1ccccc1)c1ccccc1Cl [[(2-chlorophenyl)diphenylphosphoranylidene]carbamic acid, methyl ester] | 98 | 0.94 | 2.30 | 20.0 | – | –
CCOC(=O)N=P(c1ccccc1)(c1ccccc1)c1ccccc1Cl [[(2-chlorophenyl)diphenylphosphoranylidene]carbamic acid, ethyl ester] | 96 | 0.71 | 2.05 | 19.5 | – | –
Cc1ccccc1P(=NC(=O)OCc1cccnc1)(c1ccccc1)c1ccccc1 [[(2-Methylphenyl)diphenylphosphoranylidene]carbamic acid, 3-pyridinylmethylester] | 75 | 0.62 | 1.48 | 12.3 | – | –
C=CCOC(=O)N=P(c1ccccc1)(c1ccccc1)c1ccccc1 [(triphenylphosphoranylidene)carbamic acid, 2-propenyl ester] | 67 | 0.67 | 1.17 | 13.3 | – | –
CC#CCOC(=O)N=P(c1ccccc1)(c1ccccc1)c1ccccc1 [(triphenylphosphoranylidene)carbamic acid, 2-butynyl ester] | – | 0.57 | 1.15 | 10.0 | – | –
CCOC(=O)N=P(c1ccccc1)(c1ccccc1)c1cccc(Cl)c1 [[(3-chlorophenyl)diphenylphosphoranylidene]carbamic acid, ethyl ester] | – | 0.64 | 2.32 | 23.8 | – | –
CCOC(=O)N=P(c1ccccc1)(c1ccccc1C)c1ccccc1C [[bis(2-methylphenyl)phenylphosphoranylidene]carbamic acid, ethyl ester] | 54 | 0.73 | 1.46 | 14.5 | – | –
COC(=O)N=P(c1ccccc1)(c1ccccc1)c1cccc(Cl)c1 [[(3-chlorophenyl)diphenylphosphoranylidene]carbamic acid, methyl ester] | – | 0.60 | 2.45 | 23.0 | – | –
CCOC(=O)N=P(c1ccccc1)(c1ccccc1Cl)c1ccccc1Cl [[bis(2-chlorophenyl)phenylphosphoranylidene]carbamic acid, ethyl ester] | – | 0.38 | 2.40 | 22.3 | – | –
CCOC(=O)N=P(c1ccccc1)(c1ccccc1)c1cccc(Br)c1 [[(3-Bromophenyl)diphenylphosphoranylidene]carbamic acid, ethyl ester] | – | 0.78 | 1.16 | 12.4 | – | –
CCOC(=O)N=P(c1ccccc1)(c1ccccc1)c1c(C)cccc1C [[[(2,6-dimethylphenyl)diphenyl]phosphoranylidene]carbamic acid, ethyl ester] | – | 0.86 | 1.48 | 13.0 | – | –
Cc1ccccc1P(=NC(=O)OC1CCOC1)(c1ccccc1)c1ccccc1 (centres unmarked) [[(2-Methylphenyl)diphenylphosphoranylidene]carbamic acid, tetrahydro-3-furanyl ester] | 93 | 0.97 | 2.71 | 22.3 | – | –
O=C(N=P(c1ccccc1)(c1ccccc1)c1ccccc1)OC1C=CCC1 (centres unmarked) [(triphenylphosphoranylidene)carbamic acid, 2-cyclopenten-1-yl ester] | – | 0.83 | 1.58 | 15.5 | – | –
